# Patent US10386360B2, “Bio-microelectromechanical system transducer and associated methods” (University of Central Florida Research Foundation, Inc., priority 2009, dated 2019)
# Entries after “also recorded” stand apart in the source; their conditions may differ.
# System: contractile myotubes
# Experiment: Veratridine added to electrically stimulated myotubes on microcantilevers, AFM laser detection
# Assay type: cell-based, rat
# Set-up: dose or concentration left out as unconfirmed
# Conditions: myotubes 10 days in culture, 1 Hz stimulus, veratridine final concentration
# Method: Skeletal muscle was dissected from the hind limb thighs of a rat fetus at embryonic day 18 (Charles River Laboratories, Wilmington, Mass.) according to a previously published protocol with some modification. Tissue samples were collected in a sterile 15-ml centrifuge tube containing 1 ml of calcium and magnesium free phosphate buffered saline (PBS). Tissue samples were enzymatically disassociated using 3 ml of 0.05% of trypsin-EDTA (Invitrogen, Carlsbad, Calif.) solution for 60 min in a 37° C. water bath with agitation of 100 rpm. After 60 min, the trypsin solution was removed and 6 ml of L15 media (Invitrogen, Carlsbad, Calif.) containing 10% fetal bovine serum (FBS) was added to terminate the trypsin action. The tissue was then mechanically triturated using a sterile narrow bore Pasteur pipette, allowed to settle for 3 min, and transferred to a 15-ml centrifuge tube. This was repeated three times. The dissociated tissue was then centrifuged at 300 g for 10 minutes at 4° C. on 6 ml of a 4% (wt/vol) cushion of bovine serum albumin (BSA). The pellet was resuspended in 10 ml L15+10% FBS and plated in uncoated 100-mm Petri dishes for 20-30 min depending on the amount of tissue, to allow contaminating fibroblasts to settle out. After 20-30 minutes the supernatant was layered on 6 ml of a 4% BSA cushion, and centrifuged at 300 g for 10 min at 4° C. […]
smiles,measurement,value
COc1ccc(C(=O)O[C@H]2CC[C@@]3(C)[C@@H]4CC[C@H]5[C@]6(O)C[C@H](O)[C@@]7(O)[C@@H](CN8C[C@@H](C)CC[C@H]8[C@@]7(C)O)[C@]6(O)C[C@@]53O[C@]24O)cc1OC [veratridine],ability to contract after the initial tetanic contraction,lost the ability to contract further; also recorded: lost the ability to further contract
